# Test results published in patent publication US5852008A, “Heteroatom substituted benzoyl derivatives that enhance synaptic response mediated by receptors” (The Regents of the University of California, priority 1995, dated 1998).
# Read-outs that look alike come from different tables or passages of the source.
# How the values were obtained:
# AMPA receptors = assay: Field EPSP in rat hippocampal slices (field CA1): amplitude and area of AMPA receptor-mediated synaptic responses; format: cell-based, rat (Sprague-Dawley)
# Procedure: The physiological effects of invention compounds can be tested in vitro with slices of rat hippocampus as follows. Excitatory responses (field EPSPs) are measured in hippocampal slices which are maintained in a recording chamber continuously perfused with artificial cerebrospinal fluid (ACSF).
# To conduct these tests, the hippocampus was removed from anesthetized, 2 month old Sprague-Dawley rats and in vitro slices (400 micrometers thick) were prepared and maintained in an interface chamber at 35° C. using conventional techniques [see, for example, Dunwiddie and Lynch, J. Physiol. Vol. 276: 353-367 (1978)]. The chamber was constantly perfused at 0.5 ml/min with ACSF containing (in mM): NaCl 124, KCl 3, KH2 PO4 1.25, MgSO4 2.5, CaCl2 3.4, NaHCO3 26, glucose 10 and L-ascorbate 2. A bipolar nichrome stimulating electrode was positioned in the dendritic layer (stratum radiatum) of the hippocampal subfield CA1 close to the border of subfield CA3.
# Current pulses (0.1 msec) through the stimulating electrode activate a population of the Schaffer-commissural (SC) fibers which arise from neurons in the subdivision CA3 and terminate in synapses on the dendrites of CA1 neurons. Activation of these synapses causes them to release the transmitter glutamate. Glutamate binds to the postsynaptic AMPA receptors which then transiently open an associated ion channel and permit a sodium current to enter the postsynaptic cell. This current results in a voltage in the extracellular space (the field excitatory postsynaptic potential or field "EPSP") which is recorded by a high impedance recording electrode positioned in the middle of the stratum radiatum of CA1.
# For the experiments summarized in FIG. 1, the intensity of the stimulation current was adjusted to produce half-maximal EPSPs (typically about 1.5-2.0 mV). Paired stimulation pulses were given every 40 sec with an interpulse interval of 200 msec (see below). The field EPSPs of the second response were digitized and analyzed to determine amplitude, half-width, and response area. If the responses were stable for 15-30 minutes (baseline), test compounds were added to the perfusion lines for a period of about 15 minutes. The perfusion was then changed back to regular ACSF.
# Paired-pulse stimulation was used since stimulation of the SC fibers, in part, activates interneurons which generate an inhibitory postsynaptic potential (IPSP) in the pyramidal cells of CA1. This feed forward IPSP typically sets in after the EPSP reaches its peak. It accelerates the repolarization and shortens the decay phase of the EPSP, and thus could partially mask the effects of the test compounds. One of the relevant features of the feed-forward IPSP is that it can not be reactivated for several hundred milliseconds following a stimulation pulse. This phenomenon can be employed to advantage to eliminate IPSP by delivering paired pulses separated by 200 milliseconds and using the second ("primed") response for data analysis.
# These effects are mirrored in the field EPSP, as reported in the literature [see, for example, Staubli et al., Psychobiology supra; Xiao et al., Hippocampus supra; Staubli et al., Hippocampus Vol. 2: 49-58 (1992)].
# The variables set forth in the table refer to the following generic structure: [drawing 33]
# AMPA receptor = conditions: cited from earlier work
# [1] = PET biodistribution of 11C-labelled Invention Compound II after i.p. injection
# From the text: To test the ability of invention compounds to pass the blood-brain barrier, Invention Compound II was labelled with carbon-11.
# Radiolabelled Invention Compound II (see the table above) is synthesized by the following scheme (wherein the numbers in parenthesis refer to the quantity of reagent used, in millimoles): [drawing 34] wherein Ar is aryl (such as methylenedioxybenzene), Im is imidazole (thus, ImHCl is imidazole hydrochloride), and R is an alkyl or alkylene radical (so that R2 NH is, for example, piperidine). ^11 C-labelled CO2 is produced by cyclotron irradiation and subsequently used in the above-described synthetic scheme. The time to complete the synthesis is about […] ([…] the half-life of carbon-11). After purification of [^11 C]II on C18 Sep Pak, 260 μCi was diluted with 20 mg of nonradioactive II as carrier in a 1-ml solution of 23% propylene glycol and 10% ethanol in physiologically-buffered saline in order to simulate the dosage of 100 mg/Kg that was used in behavioral studies. The final 1 ml of solution was administered to a 200 g rat under halothane anesthesia (1.4-1.7% in oxygen) by intraperitoneal (i.p.) injection.
# Biodistribution of the radiotracer in the body of the rat was monitored by a positron camera (Scanditronix PC2048-15B) and the time-activity curves were constructed using a Vax 3500 (Digital Equipment Corporation) and shown in FIG. 5.
# [2] = percent increase in field EPSP amplitude; log dose/response; maximal response of 85% increase assumed where solubility was limiting; read-out: EC50 (field EPSP amplitude)
# [3] = after i.p. injection, 100 mg/kg
# [4] = read-out: EC50 (field EPSP amplitude); percent increase in field EPSP amplitude; log dose/response; maximal response of 85% increase assumed where solubility was limiting
structure (smiles),measurement,setting,value
"CC1Oc2ccc(C(=O)N3CCCCC3)cc2O1 (racemic) [Invention Compound V, (R,S)-1-(2-methyl-1,3-benzodioxol-5-ylcarbonyl)-piperidine]",EC50,AMPA receptors; [2],1.1 mM
COc1ccc(C(=O)N2CC[C@@H](O)C2=O)cc1 [(R)-1-p-anisoyl-3-hydroxy-2-pyrrolidinone],facilitation of AMPA receptor mediated responses,AMPA receptor; nootropics tested in slices,facilitate AMPA receptor mediated responses
"O=C(c1ccc2c(c1)OCO2)N1CCCCC1 [Invention Compound II, 1-(1,3-benzodioxol-5-ylcarbonyl)-piperidine]",time of peak uptake in brain,[1]; [3],about 5 minutes
same,time of peak uptake in heart,[1]; [3],about 5 minutes
same,time of peak uptake in liver,[1]; [3],about 3 minutes
same,time of peak uptake in soft tissues,[1]; [3],about 17 minutes
same,passage through the blood-brain barrier,[1]; i.p.,passes freely through the blood-brain barrier
same,brain distribution relative to head excluding the cranial cavity,"[1]; rat, in vivo, ip",approximately equal to that of the head excluding the cranial cavity
same,decline of levels in liver after peak,"[1]; rat, in vivo, ip",declined markedly for the first 5 minutes after peaking and then more gradually
same,"decline of levels in the other three tissues (heart, brain, soft tissue) after peak","[1]; rat, in vivo, ip",declined very gradually after peaking
same,entry into and residence in brain (target tissue),"[1]; rat, in vivo, ip",relatively rapid and stayed in the brain for an extended period
same,order of tissue uptake,"[1]; rat, in vivo, ip","liver showed the maximum uptake, followed by heart"
same,EC50,AMPA receptors; [2],1.5 mM
"O=C(c1ccc2c(c1)OCO2)N1CC=CCC1 [Invention Compound III, 1-(1,3-benzodioxol-5-ylcarbonyl)-1,2,3,6-tetrahydropyridine]",EC50,AMPA receptors; [2],0.8 mM
O=C1CCCC1C(=O)c1ccc2c(c1)OCO2 (centres unmarked) [Invention Compound IV],EC50,AMPA receptors; [4],0.9 mM
O=C(c1ccc2ocnc2c1)N1CC=CCC1 [Invention Compound IX],EC50,AMPA receptors; [2],4 mM
"O=C(c1ccc2c(c1)OCO2)N1CCCC1 [Invention Compound VI, 1(1,3-Benzodioxol-5-ylcarbonyl)-pyrrolidine]",EC50,AMPA receptors; [2],1.2 mM
"O=C(c1ccc2c(c1)OCO2)N1CCCCCC1 [Invention Compound VII, 1-(1,3-benzodioxol-5-ylcarbonyl)-hexamethyleneimine]",EC50,AMPA receptors; [2],4 mM
O=C(c1ccc2c(c1)OCCO2)N1CC=CC1 [Invention Compound VIII],EC50,AMPA receptors; [2],3 mM
"O=C(c1ccc2nccnc2c1)N1CC=CCC1 [Invention Compound XIII, 1-(quinoxalin-6-ylcarbonyl)-1,2,3,6-tetrahydropyridine]",EC50,AMPA receptors; [2],0.05 mM
O=C(c1ccc2[nH]cnc2c1)N1CC=CCC1 [Invention Compound XII],EC50,AMPA receptors; [2],5 mM
"O=C(c1ccc2nccnc2c1)N1CCCCC1 [Invention Compound XIV, 1-(quinoxalin-6-ylcarbonyl)-piperidine]",EC50,AMPA receptors; [2],0.3 mM
O=C(c1ccc2ncoc2c1)N1CC=CCC1 [Invention Compound XI],EC50,AMPA receptors; [2],3 mM
"CN(C)c1ccc(C(=O)N2CC=CCC2)cc1 [Invention Compound XV, N-(4-dimethylamino)benzoyl-1,2,3,6-tetrahydropyridine]",EC50,AMPA receptors; [2],1.7 mM
O=C1CCCN1C(=O)c1ccc2c(c1)OCO2 [Invention Compound XVI],EC50,AMPA receptors; [4],2 mM
COc1ccc(C(=O)NCCCC(=O)O)cc1 [anisoyl-GABA],aniracetam-like effects,AMPA receptor; metabolite of aniracetam,no aniracetam-like effects
